Reference: US9745321B2, “Fused pyrimidine compound, intermediate, preparation method therefor, and composition and application thereof” (SHANGHAI YINGLI PHARMACEUTICAL CO., LTD, priority 2013, dated 2017)

Columns and labels:
PI3Kγ = PI3Kγ (Homo sapiens (Human), UniProt P48736); test: PI3Kγ enzyme activity inhibition IC50 evaluation assay; assay type: biochemical; conditions: ratio PI3Kγ vs PI3Kδ
Method: (§1) PI3Kα, PI3Kδ, PI3Kβ and PI3Kγ Enzyme Activity Inhibition IC50 Evaluation Assay
(§2) • 1. Buffer preparation: 50 mM HEPES, pH 7.5, 3 mM MgCl2, 1 mM EGTA, 100 mM NaCl, 0.03% CHAPS. • 2. Compound was formulated in 100% DMSO in a concentration gradient, and added to a 384-well plate to a final DMSO concentration of 1%. • 3. PI3Kα, PI3Kδ, PI3Kβ and PI3Kγ enzymes were diluted to an optimum concentration with the following buffer: 50 mM HEPES, pH 7.5, 3 mM MgCl2, 1 mM EGTA, 100 mM NaCl, 0.03% CHAPS, 2 mM DTT, and transferred to a 384-well plate and incubated with the compound for a certain time. • 4. Substrate was diluted to an optimum concentration with the following buffer: 50 mM HEPES, pH 7.5, 3 mM MgCl2, 1 mM EGTA, 100 mM NaCl, 0.03% CHAPS, 2 mM DTT, 50 μM PIP2, 25 μM ATP; then added to a 384-well plate to initiate the reaction, and for PI3Kα, PI3Kβ and PI3Kγ at room temperature reacted for 1 hr, for PI3Kδ at room temperature reacted for 2 hrs. For PI3Kβ and PI3Kγ, it was still necessary to further add 10 μL ADP-Glo Detection Reagent, and then equilibrated at room temperature for 30 minutes. • 5. Read Luminescense with FlexStation, and calculate the inhibition rate as the average of two tests.

PI3Kα = PI3Kα (Homo sapiens (Human), UniProt P42336); test: PI3Kα enzyme activity inhibition IC50 evaluation assay; assay type: biochemical; conditions: ratio PI3Kα vs PI3Kδ
Chain of PI3Kα (P42336 whole entry): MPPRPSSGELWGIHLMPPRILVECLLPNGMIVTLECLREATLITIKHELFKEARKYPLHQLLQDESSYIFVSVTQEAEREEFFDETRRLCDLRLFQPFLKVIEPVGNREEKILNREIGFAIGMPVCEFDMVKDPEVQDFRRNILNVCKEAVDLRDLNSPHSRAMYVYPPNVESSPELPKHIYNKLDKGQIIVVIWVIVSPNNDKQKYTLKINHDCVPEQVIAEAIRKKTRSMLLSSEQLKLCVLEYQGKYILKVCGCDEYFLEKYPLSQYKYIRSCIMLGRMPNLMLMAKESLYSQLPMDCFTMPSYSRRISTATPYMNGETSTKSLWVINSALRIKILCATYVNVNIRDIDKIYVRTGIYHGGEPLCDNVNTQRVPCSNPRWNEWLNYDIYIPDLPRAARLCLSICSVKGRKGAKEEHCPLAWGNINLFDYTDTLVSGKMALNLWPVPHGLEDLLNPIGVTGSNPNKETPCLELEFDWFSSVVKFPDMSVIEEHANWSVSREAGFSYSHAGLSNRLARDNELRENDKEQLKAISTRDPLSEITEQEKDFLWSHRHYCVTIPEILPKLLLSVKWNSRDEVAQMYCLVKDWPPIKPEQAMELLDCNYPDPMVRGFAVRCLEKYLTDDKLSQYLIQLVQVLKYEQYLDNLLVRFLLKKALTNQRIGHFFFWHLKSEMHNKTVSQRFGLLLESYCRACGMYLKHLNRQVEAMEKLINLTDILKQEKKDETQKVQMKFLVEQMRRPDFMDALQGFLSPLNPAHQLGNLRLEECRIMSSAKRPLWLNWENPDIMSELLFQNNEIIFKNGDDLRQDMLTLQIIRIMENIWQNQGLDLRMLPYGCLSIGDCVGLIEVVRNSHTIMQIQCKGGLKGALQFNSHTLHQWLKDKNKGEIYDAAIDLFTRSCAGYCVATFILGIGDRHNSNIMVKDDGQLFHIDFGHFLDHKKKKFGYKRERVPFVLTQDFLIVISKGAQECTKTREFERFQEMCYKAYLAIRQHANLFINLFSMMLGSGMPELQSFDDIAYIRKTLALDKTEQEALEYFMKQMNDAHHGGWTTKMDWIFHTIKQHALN
Chain of PI3Kα (P27986 whole entry partner): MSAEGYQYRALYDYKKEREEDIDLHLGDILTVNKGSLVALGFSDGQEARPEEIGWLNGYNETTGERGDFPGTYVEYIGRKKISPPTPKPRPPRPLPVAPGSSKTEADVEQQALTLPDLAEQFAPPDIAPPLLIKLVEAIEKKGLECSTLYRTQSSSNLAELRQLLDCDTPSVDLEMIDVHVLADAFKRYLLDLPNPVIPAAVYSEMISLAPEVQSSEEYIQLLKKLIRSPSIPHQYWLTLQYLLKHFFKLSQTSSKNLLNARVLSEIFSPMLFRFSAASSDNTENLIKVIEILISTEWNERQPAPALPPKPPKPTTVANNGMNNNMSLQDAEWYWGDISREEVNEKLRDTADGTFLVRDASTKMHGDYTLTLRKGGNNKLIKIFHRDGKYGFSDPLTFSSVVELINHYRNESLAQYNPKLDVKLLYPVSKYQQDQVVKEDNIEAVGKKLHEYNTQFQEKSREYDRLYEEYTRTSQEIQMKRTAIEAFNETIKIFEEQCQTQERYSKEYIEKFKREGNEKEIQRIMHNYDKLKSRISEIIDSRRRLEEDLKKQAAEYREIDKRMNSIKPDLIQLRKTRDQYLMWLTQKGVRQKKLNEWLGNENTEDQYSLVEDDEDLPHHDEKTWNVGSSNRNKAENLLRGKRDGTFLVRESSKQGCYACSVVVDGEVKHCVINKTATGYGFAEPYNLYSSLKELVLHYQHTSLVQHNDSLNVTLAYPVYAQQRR
In short: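 Enzymes were preincubated with compound (1% DMSO final) in HEPES pH 7.5 buffer with MgCl2, EGTA, NaCl, CHAPS and 2 mM DTT. Reaction started with 50 μM PIP2 and 25 μM ATP, 1 h at room temperature. Luminescence was read, with ADP-Glo detection reagent added for β and γ; inhibition is the mean of two tests.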

PI3Kδ = PI3Kδ (Homo sapiens (Human), UniProt O00329); test: PI3Kδ enzyme activity inhibition IC50 evaluation assay; assay type: biochemical; conditions: luminescence, 25 μM ATP, 50 μM PIP2, 2 hrs room temperature
Chain of PI3Kδ (O00329 whole entry): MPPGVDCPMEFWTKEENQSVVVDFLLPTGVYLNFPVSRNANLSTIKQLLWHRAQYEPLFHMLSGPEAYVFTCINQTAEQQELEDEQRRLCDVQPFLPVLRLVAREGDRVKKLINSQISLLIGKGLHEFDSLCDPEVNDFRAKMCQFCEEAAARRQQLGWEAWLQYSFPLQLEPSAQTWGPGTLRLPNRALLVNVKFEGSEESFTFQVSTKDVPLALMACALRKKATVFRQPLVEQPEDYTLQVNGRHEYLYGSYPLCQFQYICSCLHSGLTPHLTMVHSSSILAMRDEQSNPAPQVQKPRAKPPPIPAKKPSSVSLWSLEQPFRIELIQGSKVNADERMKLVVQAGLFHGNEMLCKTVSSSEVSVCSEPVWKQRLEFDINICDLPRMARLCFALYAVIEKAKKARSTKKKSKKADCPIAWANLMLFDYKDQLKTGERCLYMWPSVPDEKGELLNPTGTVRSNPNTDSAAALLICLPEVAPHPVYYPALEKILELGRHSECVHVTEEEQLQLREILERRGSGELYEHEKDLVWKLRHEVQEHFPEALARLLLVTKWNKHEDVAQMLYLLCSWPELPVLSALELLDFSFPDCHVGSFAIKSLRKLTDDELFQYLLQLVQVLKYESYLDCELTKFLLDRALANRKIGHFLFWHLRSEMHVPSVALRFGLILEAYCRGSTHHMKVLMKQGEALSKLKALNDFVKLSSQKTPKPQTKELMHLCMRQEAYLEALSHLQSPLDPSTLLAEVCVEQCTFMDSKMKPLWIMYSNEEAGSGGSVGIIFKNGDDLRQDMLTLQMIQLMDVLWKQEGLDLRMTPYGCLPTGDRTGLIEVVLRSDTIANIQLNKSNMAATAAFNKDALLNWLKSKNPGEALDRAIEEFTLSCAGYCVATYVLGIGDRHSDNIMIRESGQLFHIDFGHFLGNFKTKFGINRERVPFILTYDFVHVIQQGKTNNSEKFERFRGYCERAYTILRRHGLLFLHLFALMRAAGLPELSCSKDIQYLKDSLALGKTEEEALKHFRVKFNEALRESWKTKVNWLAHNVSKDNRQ
Chain of PI3Kδ (P27986 whole entry partner): as the sequence (P27986 whole entry partner) above
In short: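 Enzyme was preincubated with compound dilutions at 1% DMSO final in 50 mM HEPES pH 7.5, 3 mM MgCl2, 1 mM EGTA, 100 mM NaCl, 0.03% CHAPS, 2 mM DTT. Activity was read by luminescence, and inhibition rate is the mean of two tests.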

PI3Kβ = PI3Kβ (Homo sapiens (Human), UniProt P42338); test: PI3Kβ enzyme activity inhibition IC50 evaluation assay; assay type: biochemical; conditions: ratio PI3Kβ vs PI3Kδ
Chain of PI3Kβ (P42338 whole entry): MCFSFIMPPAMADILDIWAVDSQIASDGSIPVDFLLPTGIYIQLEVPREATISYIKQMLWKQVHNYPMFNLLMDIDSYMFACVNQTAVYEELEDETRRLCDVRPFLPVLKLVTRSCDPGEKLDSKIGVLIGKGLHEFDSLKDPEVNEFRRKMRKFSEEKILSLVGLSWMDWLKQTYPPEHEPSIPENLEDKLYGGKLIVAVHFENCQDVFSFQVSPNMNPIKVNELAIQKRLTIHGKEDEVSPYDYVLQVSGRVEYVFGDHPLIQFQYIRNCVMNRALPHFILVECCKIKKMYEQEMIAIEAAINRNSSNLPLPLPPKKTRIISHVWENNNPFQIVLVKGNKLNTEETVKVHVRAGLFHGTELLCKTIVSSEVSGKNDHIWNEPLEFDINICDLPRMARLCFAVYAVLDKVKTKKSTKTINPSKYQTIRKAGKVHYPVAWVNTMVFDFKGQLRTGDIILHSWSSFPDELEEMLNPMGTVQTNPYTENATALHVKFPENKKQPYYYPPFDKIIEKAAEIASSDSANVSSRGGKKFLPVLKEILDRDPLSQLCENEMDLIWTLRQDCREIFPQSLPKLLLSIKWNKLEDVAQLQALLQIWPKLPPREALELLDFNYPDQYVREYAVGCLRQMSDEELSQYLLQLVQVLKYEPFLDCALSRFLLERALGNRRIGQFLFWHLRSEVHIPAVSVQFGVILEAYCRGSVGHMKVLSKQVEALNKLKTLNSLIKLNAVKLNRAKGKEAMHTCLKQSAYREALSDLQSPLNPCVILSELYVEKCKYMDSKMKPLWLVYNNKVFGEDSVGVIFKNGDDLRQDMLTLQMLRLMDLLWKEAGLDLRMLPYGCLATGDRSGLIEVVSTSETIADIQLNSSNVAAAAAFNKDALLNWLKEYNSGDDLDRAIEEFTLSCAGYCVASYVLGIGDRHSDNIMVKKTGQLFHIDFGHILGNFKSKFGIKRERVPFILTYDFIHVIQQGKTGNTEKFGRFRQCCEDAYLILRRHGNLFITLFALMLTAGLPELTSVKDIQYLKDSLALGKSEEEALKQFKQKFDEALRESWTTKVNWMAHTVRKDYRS
Chain of PI3Kβ (P27986 whole entry partner): as the sequence (P27986 whole entry partner) above
Method: as §1, §2

Raji cells = test: Inhibition of TNF-α generation of human Raji cell induced by human IgM; assay type: cell-based; conditions: 10 μg/ml IgM stimulation, 24 hrs, ELISA
Method: Screening Test for a Drug on Inhibiting TNF-α Generation of Human Raji Cell Induced by Human IgM
• 1. Raji cell lines (source of human Burkitt's lymphoma) were employed. • 2. 1×10^5/well Raji cells were plated onto a 96-well cell culture plate. • 3. Compounds to be screened were diluted to the corresponding test concentrations and added into the cell culture system 30 minutes before IgM stimulation. • 4. 10 μg/ml IgM monoclonal antibody was added into the cell culture system to stimulate the cells generating TNF-α. • 5. 24 hrs later, the amount of TNF-α generated by the cell system was measured by ELISA method. • 6.

Chain of PI3Kγ (P48736 whole entry): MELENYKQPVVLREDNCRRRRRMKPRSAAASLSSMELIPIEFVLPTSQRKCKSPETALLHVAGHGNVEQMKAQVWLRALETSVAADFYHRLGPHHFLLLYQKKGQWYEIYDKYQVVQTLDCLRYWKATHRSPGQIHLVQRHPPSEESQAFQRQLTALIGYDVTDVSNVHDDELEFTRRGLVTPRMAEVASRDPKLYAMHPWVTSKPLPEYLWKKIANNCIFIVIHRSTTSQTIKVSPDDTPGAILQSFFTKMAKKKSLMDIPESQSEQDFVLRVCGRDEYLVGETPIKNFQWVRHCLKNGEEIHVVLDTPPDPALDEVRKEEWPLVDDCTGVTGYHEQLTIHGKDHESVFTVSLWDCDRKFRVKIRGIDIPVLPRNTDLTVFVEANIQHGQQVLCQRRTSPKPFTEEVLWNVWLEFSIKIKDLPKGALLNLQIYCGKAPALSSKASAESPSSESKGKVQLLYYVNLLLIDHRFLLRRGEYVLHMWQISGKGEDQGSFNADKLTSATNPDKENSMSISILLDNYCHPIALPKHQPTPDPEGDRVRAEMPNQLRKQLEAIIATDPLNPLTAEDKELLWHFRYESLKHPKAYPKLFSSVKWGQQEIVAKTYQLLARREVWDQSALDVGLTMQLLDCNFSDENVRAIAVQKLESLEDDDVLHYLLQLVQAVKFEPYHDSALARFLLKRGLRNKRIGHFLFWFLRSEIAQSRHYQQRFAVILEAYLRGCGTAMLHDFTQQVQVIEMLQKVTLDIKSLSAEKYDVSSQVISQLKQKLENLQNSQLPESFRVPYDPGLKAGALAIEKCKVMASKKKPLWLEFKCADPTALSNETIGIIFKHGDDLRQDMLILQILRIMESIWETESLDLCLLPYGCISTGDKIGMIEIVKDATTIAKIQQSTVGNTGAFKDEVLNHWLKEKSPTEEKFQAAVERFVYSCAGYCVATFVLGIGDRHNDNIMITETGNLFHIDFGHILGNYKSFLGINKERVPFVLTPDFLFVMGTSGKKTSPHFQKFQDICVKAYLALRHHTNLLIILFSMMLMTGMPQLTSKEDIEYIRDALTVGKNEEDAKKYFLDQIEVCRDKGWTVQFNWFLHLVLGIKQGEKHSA

SMILES	γ/δ selectivity (PI3Kγ)	α/δ selectivity (PI3Kα)	IC50 (PI3Kδ)	β/δ selectivity (PI3Kβ)	IC50 (Raji cells)
COc1ncc(-c2nc(N3CCOCC3)nc3c(CN4CCC5(CC4)OCCO5)c(C)sc23)cc1NS(C)(=O)=O [Compound 104]	377	159	4.3 nM	19	
COc1ncc(-c2nc(N3CCOCC3)nc3c(CN4CCCC4)c(C)sc23)cc1NS(C)(=O)=O [Compound 102]	200	146	9.3 nM	16	
CC(C)(O)C1CCN(Cc2csc3c(-c4cccc5[nH]ccc45)nc(N4CCOCC4)nc23)CC1 [Compound 4]	>282	>282	35.4 nM	>282	
COc1ncc(-c2nc(N3CCOCC3)nc3c(CN4CCC(N5CCCC5)CC4)c(C)sc23)cc1NS(C)(=O)=O [Compound 112]	611	108	7.6 nM	126	1.1 nM
COc1ncc(-c2nc(N3CCOCC3)nc3c(CN4CCC(OC)CC4)c(C)sc23)cc1NS(C)(=O)=O [Compound 83]	>840	257	11.9 nM	24	6.7 nM
COc1ncc(-c2nc(N3CCOCC3)nc3c(CN4CCC(N(C)C(C)C)CC4)c(C)sc23)cc1NS(C)(=O)=O [Compound 95]	532	157	6.5 nM	167	1.1 nM
COc1ncc(-c2nc(N3CCOCC3)nc3c(CN4CCN(C)CC4)c(C)sc23)cc1NS(C)(=O)=O [Compound 65]	>571	174	17.5 nM	94	15.4 nM
COc1ncc(-c2nc(N3CCOCC3)nc3c(OC4CCC(N5CCCCC5)CC4)c(C)sc23)cc1NS(C)(=O)=O (stereo not shown) [Compound 153]	>909	42	11 nM	418	0.6 nM
COc1ncc(-c2nc(N3CCOCC3)nc3c(CN4CCC(C)(C)CC4)c(C)sc23)cc1NS(C)(=O)=O [Compound 99]	244	152	34 nM	24	
COc1ncc(-c2nc(N3CCOCC3)nc3c(CN4CCC(N5CCC5)CC4)c(C)sc23)cc1NS(C)(=O)=O [Compound 148]	587	280	4.7 nM	110	7 nM
COc1ncc(-c2nc(N3CCOCC3)nc3c(CN4CCCCC4)c(C)sc23)cc1NS(C)(=O)=O [Compound 86]	402	136	12 nM	25	
COc1ncc(-c2nc(N3CCOCC3)nc3c(CN4CCC(C)CC4)c(C)sc23)cc1NS(C)(=O)=O [Compound 101]	482	390	12 nM	29	32.6 nM
COc1ncc(-c2nc(N3CCOCC3)nc3c(CN4CCC5(CC4)CNC5)c(C)sc23)cc1NS(C)(=O)=O [Compound 106]	>392	129	25.5 nM	72	
COc1ncc(-c2nc(N3CCOCC3)nc3c(CN4CCC(N5CCCCC5)CC4)c(C)sc23)cc1NS(C)(=O)=O [Compound 147]	567	225	4.6 nM	140	3.3 nM
COc1ncc(-c2nc(N3CCOCC3)nc3c(CN4CCC(C(C)(C)OC)CC4)c(C)sc23)cc1NS(C)(=O)=O [Compound 78]	>1298	302	7.7 nM	18	10.6 nM
Cc1sc2c(-c3cccc4[nH]ccc34)nc(N3CCOCC3)nc2c1CN1CCN(C(=O)CO)CC1 [Compound 8]	57	90	72 nM	27	
COc1ncc(-c2nc(N3CCOCC3)nc3c(CN4CCN(C(C)(C)C)CC4)c(C)sc23)cc1NS(=O)(=O)C1CC1 [Compound 109]	1296	251	3.9 nM	723	
COc1ncc(-c2nc(N3CCOCC3)nc3c(CN4CCN(CC(F)(F)F)CC4)c(C)sc23)cc1NS(C)(=O)=O [Compound 87]	498	204	12.5 nM	45	41.6 nM
CCN(CC)C1CCN(Cc2c(C)sc3c(-c4cnc(OC)c(NS(C)(=O)=O)c4)nc(N4CCOCC4)nc23)CC1 [Compound 110]	1112	203	4.1 nM	275	3.3 nM
COc1ncc(-c2nc(N3CCOCC3)nc3c(CN4CCN(CC(F)(F)F)CC4)c(C)sc23)cc1NS(=O)(=O)C1CC1 [Compound 84]		>213	47 nM		30.4 nM
COc1ncc(-c2nc(N3CCOCC3)nc3c(CN4CCN(C(=O)CC#N)CC4)c(C)sc23)cc1NS(C)(=O)=O [Compound 100]		17	17 nM		5.7 nM
COc1ncc(-c2nc(N3CCOCC3)nc3c(CN4CCC(O)CC4)c(C)sc23)cc1NS(C)(=O)=O [Compound 108]	262	78	13 nM	6	
COc1ncc(-c2nc(N3CCOCC3)nc3c(CN4CC(N(C)C)C4)c(C)sc23)cc1NS(C)(=O)=O [Compound 121]		192	16 nM		33.7 nM
COc1ncc(-c2nc(N3CCOCC3)nc3c(CN4CCC(C(C)(C)O)CC4)c(C)sc23)cc1NS(=O)(=O)C1CC1 [Compound 79]		582	9.4 nM		14.5 nM
COc1ncc(-c2nc(N3CCOCC3)nc3c(CN4CCN(C(C)(C)C)CC4)c(C)sc23)cc1NS(C)(=O)=O [Compound 89]		48	2.6 nM		1.3 nM
COc1ncc(-c2nc(N3CCOCC3)nc3c(CN4CCC(OC)CC4)c(C)sc23)cc1NS(=O)(=O)C1CC1 [Compound 81]		374	24 nM		43 nM
